The values that follow come from ChEMBL document CHEMBL3045008, “Toxicity, inheritance of fenpyroximate resistance, and detoxification-enzyme levels in a laboratory-selected fenpyroximate-resistant strain of Tetranychus urticae Koch (Acari: Tetranychidae)” (2011).

Holding throughout (format): functional
For test [1], the system named is Tetranychus urticae. Briefly: Insecticidal activity against Tetranychus urticae FPY 14 (two-spotted spider mite) assessed as mortality at 26 +/- 2 degC with 60 +/- 5% RH for first 24 hr.
In test [2] the test system is Tetranychus urticae. Briefly: Resistant ratio, LC50 for Tetranychus urticae FPY 14 (two-spotted spider mite) to LC50 for Tetranychus urticae GSS.
Test [3] deals with Tetranychus urticae. Briefly: Insecticidal activity against Tetranychus urticae GSS (two-spotted spider mite) assessed as mortality at 26 +/- 2 degC with 60 +/- 5% RH for first 24 hr.

The structures appear in SMILES notation.

For `Cc1c(COC(=O)[C@@H]2[C@H](/C=C(\Cl)C(F)(F)F)C2(C)C)cccc1-c1ccccc1` (relative stereo) [BIFENTHRIN], the figures for the LC50 in the test with Tetranychus urticae [1] and with Tetranychus urticae [3] were 12.77 mgAi/L and 54.53 mgAi/L, respectively. For the same compound, in the test with Tetranychus urticae [2], the RatioLC50 is less than 1.
For `CC[C@H](C)[C@H]1O[C@]2(C=C[C@@H]1C)C[C@@H]1C[C@@H](C/C=C(\C)[C@@H](O[C@H]3C[C@H](OC)[C@@H](O[C@H]4C[C@H](OC)[C@@H](O)[C@H](C)O4)[C@H](C)O3)[C@@H](C)/C=C/C=C3\CO[C@@H]4[C@H](O)C(C)=C[C@@H](C(=O)O1)[C@]34O)O2.CO[C@H]1C[C@H](O[C@H]2[C@H](C)O[C@@H](O[C@@H]3/C(C)=C/C[C@@H]4C[C@@H](C[C@]5(C=C[C@H](C)[C@@H](C(C)C)O5)O4)OC(=O)[C@@H]4C=C(C)[C@@H](O)[C@H]5OC/C(=C\C=C\[C@@H]3C)[C@]54O)C[C@@H]2OC)O[C@@H](C)[C@@H]1O` [ABAMECTIN] the same measures were 1.56 mgAi/L, 0.2 mgAi/L and 7.8.
For `Cc1ccc(/N=C/N(C)/C=N/c2ccc(C)cc2C)c(C)c1` [AMITRAZ] the same measures were 167.13 mgAi/L, 60.07 mgAi/L and 2.78.
As for `CCOP(=S)(OCC)Oc1nc(Cl)c(Cl)cc1Cl` [CHLORPYRIFOS], the LC50 in the test on Tetranychus urticae [1] came to 85.84 mgAi/L; with Tetranychus urticae [3] it was 12.44 mgAi/L. For the same compound, in the test on Tetranychus urticae [2], the RatioLC50 is 6.9.
For `Clc1ccccc1-c1nnc(-c2ccccc2Cl)nn1` [CLOFENTEZINE], the LC50 in the test with Tetranychus urticae [1] worked out at 68.52 mgAi/L; in the test on Tetranychus urticae [3] it was 14.32 mgAi/L. The RatioLC50 with Tetranychus urticae [2] is on record as 4.78.
For `Cc1nn(C)c(Oc2ccccc2)c1/C=N/OCc1ccc(C(=O)OC(C)(C)C)cc1` [FENPYROXYMATE], in the test with Tetranychus urticae [1], the LC60 is reported as 319.1 mgAi/L and the LC90 stood at 1637.86 mgAi/L. Moreover, in the test on Tetranychus urticae [3], the LC60 is 5.1 mgAi/L and the LC90 turned out to be 29.5 mgAi/L.
With `C#CCOS(=O)OC1CCCCC1Oc1ccc(C(C)(C)C)cc1` (configuration not stated) [PROPARGITE], the LC50 is 482.52 mgAi/L in the test with Tetranychus urticae [1] and 75 mgAi/L in the test with Tetranychus urticae [3]. Moreover, the RatioLC50 in the test with Tetranychus urticae [2] was found to be 6.43.
